Consider one compound from patent US7799811B2, “Agent for prevention and treatment of cancer comprising oxadiazole urea compound obstructing activity of stat” (Korea Research Institute of Bioscience and Biotechnology, priority 2006, dated 2010).

For one series, the target named is T1, STAT3 (Homo sapiens, UniProt P40763).
T1 construct: Colorectal carcinoma HCT116 cells were co-transfected with a plasmid carrying firefly luciferase, whose expression increases with STAT3 activity; endogenous in cells; host or cells: HCT116 human colorectal carcinoma cells
T1 sequence (P40763 whole entry): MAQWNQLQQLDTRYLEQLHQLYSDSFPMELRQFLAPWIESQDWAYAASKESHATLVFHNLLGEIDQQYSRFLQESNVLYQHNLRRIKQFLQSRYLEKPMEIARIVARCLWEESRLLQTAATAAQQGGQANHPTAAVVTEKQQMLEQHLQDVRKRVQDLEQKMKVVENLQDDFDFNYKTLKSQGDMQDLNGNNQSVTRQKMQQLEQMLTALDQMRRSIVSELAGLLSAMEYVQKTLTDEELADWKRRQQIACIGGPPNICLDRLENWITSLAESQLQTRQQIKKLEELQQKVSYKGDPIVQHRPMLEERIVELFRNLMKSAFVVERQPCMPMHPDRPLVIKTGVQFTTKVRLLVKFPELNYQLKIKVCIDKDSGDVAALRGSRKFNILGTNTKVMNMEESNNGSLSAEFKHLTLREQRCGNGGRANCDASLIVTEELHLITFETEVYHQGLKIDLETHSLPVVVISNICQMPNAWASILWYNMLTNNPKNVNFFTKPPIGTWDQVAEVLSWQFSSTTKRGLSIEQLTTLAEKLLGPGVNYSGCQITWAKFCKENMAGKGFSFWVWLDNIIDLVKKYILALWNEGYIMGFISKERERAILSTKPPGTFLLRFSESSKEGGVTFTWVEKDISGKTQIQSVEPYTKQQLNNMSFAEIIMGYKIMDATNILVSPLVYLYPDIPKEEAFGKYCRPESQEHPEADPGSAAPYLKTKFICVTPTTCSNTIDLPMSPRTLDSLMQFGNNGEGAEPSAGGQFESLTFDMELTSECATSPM
Description: dual luciferase assay for STAT3 inhibitory activity in transfected HCT116 cells. To be noted: HCT116 cells transfected with STAT3-dependent firefly luciferase; 12 hrs or 24 hrs; read-out: concentration inhibiting 50% of STAT3 activity. The series is classed as cell-based. The procedure:
A dual luciferase assay was performed to determine whether the oxadiazole urea compound of the present invention has inhibitory activity against STAT3.
Colorectal carcinoma HCT116 cells were co-transfected with a plasmid carrying firefly luciferase, whose expression increases with STAT3 activity, and another plasmid carrying renilla luciferase, which is expressed independently of STAT3 activity. The transfected HCT116 cells were detached using 0.05% trypsin EDTA and seeded onto a 96-well test plate at a density of 1×10^4 cells per well. Cells were cultured in an incubator at 37[…] under 5% CO2 for 3 hrs, and then incubated with DMSO (1%) alone as a control and with the oxadiazole urea compound (dissolved in DMSO) at various concentrations (diluted 1/100).
After 12 hrs or 24 hrs, STAT activity was assayed by adding two different substrates for firefly luciferase and renilla luciferase, beetle luciferin and coelenterazine, to the medium. The luminescence intensity by substrate degradation was measured using a luminometer (Wallac 1420). The measured firefly luciferase activity reflected STAT3 activity in a proportional manner. Renilla luciferase was used to calibrate non-specific cytotoxicity, occurring in each test group, and internal deviation.

Series [1] deals with colorectal carcinoma HCT116 cells. Description: WST-1 growth inhibition assay, HCT116. It counts as cell-based. To be noted: Homo sapiens, HCT-116, 24 hrs. The procedure:
(§1) The oxadiazole urea compound of the present invention was estimated for growth inhibitory activity against other human cancer cell lines in a WST-1 assay.
(§2) Human cancer cell lines were cultured in 10% fetal bovine serum (FBS)-containing medium at 37[…] under 5% CO2, and detached using 0.05% trypsin-EDTA. Cells were seeded onto a 96-well plate at a density of 5×10^3 cells per well (for MDA-MB-231 and MDA-MB-468 breast cancer cells) or at a density of 7×10^3 cells per well (for colorectal carcinoma HCT116 and colon cancer SW620 cells).
(§3) Then, cells were cultured in 10% FBS containing medium in an incubator at 37[…] under 5% CO2. After 24 hrs, the medium was exchanged with a medium containing 0.1% DMSO (as a control), or with media containing the oxadiazole urea compound at various concentrations (the compound dissolved in DMSO was diluted in medium), and cells were further cultured for 24 hrs. 10 μl of WST-1 Reagent (Roche) was added to each well, and the plate was incubated for 2 hrs. Absorbance was measured at 450 nm using an ELISA reader (Bio-Rad).

The subject of series [2] is MDA-MB-468 breast cancer cells. As to the kind of experiment: WST-1 growth inhibition assay, MDA-MB-468. It counts as cell-based. The note with it: Homo sapiens, MDA-MB-468 cells, 24 hrs. The procedure:
as §1, §2, §3

The subject of the next series is colon cancer SW620 cells. As to the kind of experiment: WST-1 growth inhibition assay, SW620. It counts as cell-based. The note with it: Homo sapiens, SW-620, 24 hrs. The procedure:
as §1, §2, §3

In series [3] the test system is MDA-MB-231 breast cancer cells. As to the kind of experiment: WST-1 growth inhibition assay, MDA-MB-231. It counts as cell-based, human. The note with it: MDA-MB-231 cells, 24 hrs. The procedure:
as §1, §2, §3

The test system of a further series is SD rats. As to the kind of experiment: acute toxicity test on oral application in rats. The series is classed as in vivo. The note with it: single oral dose of 1 g/kg/ml. The procedure: An acute toxicity test was conducted with 6-week-old specific pathogen-free (SPF) SD rats. The present compound was suspended in injectable distilled water, and orally administered to two SD rats per group at a single dose of 1 g/kg/ml. […] After autopsy, abnormalities of abdominal and thoracic organs were visually observed.

A further series can be described thus: solubility in solvents. It counts as physicochemical.

In the case of `O=C(Nc1ccc(C(F)(F)F)cc1)Nc1nonc1-c1ccc(Cl)cc1` [compound of Chemical Formula 1], the IC50 at STAT3 is 2.5 to 3 µM. Besides, the GI50 in series [1] worked out at 15 µM; in series [2], 40 µM; in the series with colon cancer SW620 cells, 70 µM. The “50% growth inhibition concentration” value in series [3] is listed as at least 100 μm. In the series on SD rats, the clinical symptoms result is on record as “no special clinical symptoms”. For the same compound, the “solubility in a nonpolar solvent” value in “solubility in solvents” (nonpolar solvent, such as hexane) was “not dissolved”. Besides, in the series “solubility in solvents” (polar solvent, such as DMSO), the “solubility in a polar solvent” value was “well dissolved”.
